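Compound exposure: 48 hours, 5 concentrations, 96-well plates. Abbreviation: GI50, concentration required for 50% inhibition of growth.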 Active and inactive are the calls of the source. No stated cut-off is given here; in the data, active = GI50 up to about 1.1 µM and inactive = higher.
Key:
Experiment in all cases: NCI anticancer screen, dose series, 48 h
SK-MEL-5 = test system: SK-MEL-5
UO-31 = test system: UO-31
A549 = test system: A549
SF-539 = test system: SF-539
M14 = test system: M14
DU-145 = test system: DU-145
Malme-3M = test system: Malme-3M
HT-29 = test system: HT-29
HL-60 = test system: HL-60
SF-268 = test system: SF-268
CAKI-1 = test system: CAKI-1
UACC-62 = test system: UACC-62
UACC-257 = test system: UACC-257
PC-3 = test system: PC-3
OVCAR-4 = test system: OVCAR-4
OVCAR-3 = test system: OVCAR-3
NCI-H460 = test system: NCI-H460
SK-MEL-2 = test system: SK-MEL-2
HCC 2998 = test system: HCC 2998
MCF7 = test system: MCF7

Measured: GI50

CC1OC(=O)c2ccccc2NC1=O (stereo unspecified)
inactive: SK-MEL-5 > 100 µM | UO-31 > 100 µM | A549 > 100 µM | SF-539 > 100 µM | M14 > 100 µM | DU-145 > 100 µM | Malme-3M > 100 µM | HT-29 > 100 µM | HL-60 > 100 µM | SF-268 > 100 µM | CAKI-1 > 100 µM | UACC-62 > 100 µM | UACC-257 > 100 µM | PC-3 > 100 µM | OVCAR-4 > 100 µM | OVCAR-3 > 100 µM | NCI-H460 > 100 µM | SK-MEL-2 > 100 µM

CCc1cccc(C(C)C)c1NC(=O)C(=O)C1C(=O)Nc2ccccc2[S+]1[O-] (stereo unspecified)
inactive: SK-MEL-5 > 100 µM | UO-31 > 100 µM | A549 > 100 µM | SF-539 > 100 µM | M14 > 100 µM | DU-145 > 100 µM | Malme-3M > 100 µM | HT-29 > 100 µM | HCC 2998 > 100 µM | SF-268 > 100 µM | MCF7 > 100 µM | CAKI-1 > 100 µM | UACC-62 > 100 µM | UACC-257 > 100 µM | PC-3 > 100 µM | OVCAR-4 > 100 µM | OVCAR-3 > 100 µM | NCI-H460 > 100 µM | SK-MEL-2 > 100 µM

Cc1[nH]c2ncn(N)c(=N)c2c1Cc1ccccc1
inactive: SK-MEL-5 19.1 µM | UO-31 26.1 µM | A549 58.3 µM | SF-539 58.2 µM | M14 > 100 µM | Malme-3M 6.76 µM | HT-29 67.9 µM | HCC 2998 > 100 µM | HL-60 17.8 µM | MCF7 33 µM | CAKI-1 > 100 µM | UACC-62 58.1 µM | UACC-257 > 100 µM | PC-3 30.6 µM | OVCAR-4 > 100 µM | OVCAR-3 > 100 µM | SK-MEL-2 > 100 µM

CCCCC#COP(=O)(OCC)OCC
inactive: SK-MEL-5 > 100 µM | UO-31 > 100 µM | A549 > 100 µM | SF-539 > 100 µM | M14 > 100 µM | Malme-3M > 100 µM | HT-29 > 100 µM | HCC 2998 > 100 µM | HL-60 > 100 µM | SF-268 > 100 µM | CAKI-1 > 100 µM | UACC-62 > 100 µM | UACC-257 > 100 µM | OVCAR-4 > 100 µM | OVCAR-3 > 100 µM | NCI-H460 > 100 µM | SK-MEL-2 > 100 µM

Cc1ccc(C2c3c(n(C)c(=O)n(C)c3=O)OC(N(C)C)(N(C)C)C2(F)F)cc1 (stereo unspecified)
inactive: SK-MEL-5 > 100 µM | UO-31 > 100 µM | A549 > 100 µM | M14 > 100 µM | DU-145 > 100 µM | HCC 2998 > 100 µM | SF-268 > 100 µM | MCF7 > 100 µM | CAKI-1 > 100 µM | UACC-62 > 100 µM | UACC-257 > 100 µM | PC-3 > 100 µM | OVCAR-4 51.4 µM | OVCAR-3 > 100 µM | NCI-H460 > 100 µM | SK-MEL-2 > 100 µM

CN(C)CC1CCC(=C2CCCC2)C1=O (stereo unspecified)
inactive: SK-MEL-5 17.9 µM | UO-31 18.3 µM | A549 20.5 µM | SF-539 20 µM | M14 8.3 µM | Malme-3M 5.62 µM | HT-29 12.5 µM | HCC 2998 18.2 µM | HL-60 3.51 µM | SF-268 12.4 µM | CAKI-1 > 100 µM | UACC-62 17.3 µM | UACC-257 17.4 µM | OVCAR-4 16.7 µM | OVCAR-3 13.5 µM | NCI-H460 21.7 µM | SK-MEL-2 18.4 µM

COc1cc(OC)cc(Oc2nc3c(N)cc(C(F)(F)F)cc3nc2-c2ccccc2)c1
inactive: SK-MEL-5 37.3 µM | UO-31 > 100 µM | SF-539 99.3 µM | M14 49.3 µM | HT-29 15.9 µM | HCC 2998 24.3 µM | HL-60 16.6 µM | SF-268 74.8 µM | MCF7 8.93 µM | CAKI-1 26.9 µM | UACC-62 > 100 µM | UACC-257 79.3 µM | PC-3 26.2 µM | OVCAR-4 78.9 µM | NCI-H460 30.2 µM | SK-MEL-2 20 µM

COc1ccc(/N=C2\S/C(=N\C(=N\c3ccccc3)SCc3ccccc3)N(c3ccccc3)\C2=N/c2ccc(OC)cc2)cc1
inactive: SK-MEL-5 > 100 µM | UO-31 > 100 µM | A549 > 100 µM | M14 72.1 µM | Malme-3M > 100 µM | HT-29 > 100 µM | HCC 2998 > 100 µM | HL-60 > 100 µM | MCF7 > 100 µM | UACC-62 > 100 µM | UACC-257 > 100 µM | PC-3 > 100 µM | SK-MEL-2 > 100 µM

Cc1ccccc1/N=C/c1ccc(N(CCC#N)S(=O)(=O)c2ccccc2)cc1
inactive: SK-MEL-5 > 100 µM | UO-31 > 100 µM | A549 > 100 µM | SF-539 > 100 µM | M14 > 100 µM | Malme-3M > 100 µM | HT-29 > 100 µM | HCC 2998 > 100 µM | HL-60 32.4 µM | SF-268 > 100 µM | CAKI-1 > 100 µM | UACC-62 > 100 µM | UACC-257 > 100 µM | OVCAR-4 > 100 µM | OVCAR-3 > 100 µM | NCI-H460 > 100 µM | SK-MEL-2 > 100 µM

COc1ccc(N2C(=O)C3c4[nH]c5ccccc5c4C4CCC(C(C)C)CC4C3C2=O)cc1 (stereo unspecified)
inactive: SK-MEL-5 > 100 µM | UO-31 > 100 µM | A549 > 100 µM | M14 > 100 µM | DU-145 > 100 µM | Malme-3M 42.9 µM | HT-29 > 100 µM | HCC 2998 > 100 µM | SF-268 > 100 µM | MCF7 > 100 µM | CAKI-1 > 100 µM | UACC-62 > 100 µM | UACC-257 > 100 µM | PC-3 > 100 µM | OVCAR-4 > 100 µM | OVCAR-3 > 100 µM | NCI-H460 > 100 µM | SK-MEL-2 > 100 µM

CN(C(=O)C1CCCCCC1=O)c1ccccc1Cl (stereo unspecified)
inactive: SK-MEL-5 > 100 µM | UO-31 > 100 µM | A549 > 100 µM | SF-539 > 100 µM | M14 > 100 µM | DU-145 > 100 µM | Malme-3M > 100 µM | HT-29 > 100 µM | SF-268 > 100 µM | CAKI-1 > 100 µM | UACC-257 > 100 µM | OVCAR-4 > 100 µM | OVCAR-3 > 100 µM | NCI-H460 > 100 µM

NC(=S)Nc1ccc(S(=O)(=O)Nc2ccc(S(N)(=O)=O)cc2)cc1
inactive: SK-MEL-5 > 100 µM | UO-31 > 100 µM | A549 > 100 µM | M14 > 100 µM | DU-145 > 100 µM | Malme-3M > 100 µM | HT-29 > 100 µM | HL-60 > 100 µM | MCF7 > 100 µM | CAKI-1 > 100 µM | UACC-62 > 100 µM | UACC-257 > 100 µM | PC-3 > 100 µM | OVCAR-4 > 100 µM | OVCAR-3 > 100 µM | NCI-H460 > 100 µM | SK-MEL-2 > 100 µM

CCCCCC1C2C(=O)NC(=O)C1C(=O)NC2=O (stereo unspecified)
inactive: SK-MEL-5 > 100 µM | UO-31 > 100 µM | A549 > 100 µM | SF-539 > 100 µM | M14 > 100 µM | Malme-3M > 100 µM | HT-29 > 100 µM | HCC 2998 > 100 µM | HL-60 > 100 µM | SF-268 > 100 µM | CAKI-1 > 100 µM | UACC-62 > 100 µM | UACC-257 > 100 µM | OVCAR-4 > 100 µM | OVCAR-3 > 100 µM | NCI-H460 > 100 µM | SK-MEL-2 > 100 µM

COC(=O)c1c(C(=O)OC)c2ccccn2c1-c1cc(OC)c(Br)c(=O)o1
inactive: SK-MEL-5 > 100 µM | UO-31 > 100 µM | A549 > 100 µM | SF-539 56.8 µM | M14 > 100 µM | DU-145 > 100 µM | Malme-3M > 100 µM | HT-29 > 100 µM | HCC 2998 > 100 µM | HL-60 > 100 µM | SF-268 > 100 µM | UACC-62 > 100 µM | UACC-257 > 100 µM | PC-3 > 100 µM | OVCAR-4 > 100 µM | OVCAR-3 > 100 µM | NCI-H460 > 100 µM | SK-MEL-2 > 100 µM

COc1c(-c2nc3ccc(N4CCN(C)CC4)nc3[nH]2)cc(OC)c2c1nc(CO)n2C
inactive: UO-31 > 100 µM | A549 > 100 µM | SF-539 53.3 µM | M14 > 100 µM | DU-145 > 100 µM | Malme-3M > 100 µM | HT-29 > 100 µM | HCC 2998 > 100 µM | HL-60 81.7 µM | SF-268 > 100 µM | CAKI-1 > 100 µM | UACC-62 > 100 µM | UACC-257 > 100 µM | PC-3 > 100 µM | OVCAR-4 > 100 µM | OVCAR-3 > 100 µM | NCI-H460 > 100 µM | SK-MEL-2 > 100 µM

Cc1cn(CCCC2=NCCCN2)c(=O)[nH]c1=O
inactive: SK-MEL-5 > 100 µM | UO-31 > 100 µM | A549 > 100 µM | SF-539 > 100 µM | M14 > 100 µM | DU-145 > 100 µM | Malme-3M > 100 µM | HT-29 > 100 µM | HCC 2998 > 100 µM | SF-268 > 100 µM | MCF7 > 100 µM | CAKI-1 > 100 µM | UACC-62 > 100 µM | UACC-257 > 100 µM | PC-3 > 100 µM | OVCAR-4 > 100 µM | OVCAR-3 > 100 µM | NCI-H460 > 100 µM | SK-MEL-2 > 100 µM

Source: ChEMBL document CHEMBL1201862, “PubChem BioAssay data set” (2004)
